One data set deals with SK Hep-1. Put plainly: 48 h MTT dye reduction assay. The data set is classed as cell-based. As to conditions: Homo sapiens, SK-HEP1, read-out: IC50 Values ± SEM (n). The source says: (§1) The cytotoxic activity of rADF-Ant was compared to several chemotherapeutic drugs on a panel of three HCC cell lines.
In the next data set the test system is Hep3B. Put plainly: 48 h MTT dye reduction assay. Type of data set: cell-based. As to conditions: Homo sapiens.
Source text: as §1
(§2) Without limiting the invention to any particular mechanism, another possible mechanism of resistance is expression of the multidrug resistance associated protein (MRP). This protein is thought to exert a function similar to the p-glycoprotein, and is expressed at high levels in the HepG2 and SK Hep-1 cell lines (Takeuchi, et al., 1999, J Gastroenterol 34:351-358). Increased expression of thioredoxin, which functions as a cellular defense mechanism against oxidative stress, may also protect HCC's from some chemotherapeutic agents (Kawahara, et al., 1996, Cancer Res 56:5330-5333). Expression of different xenobiotic enzymes (e.g. cytochrome P-450 and glutathione S-transferase) may also contribute to the intrinsic drug resistance of HCC (Murray, et al., 1993, Cancer 71:36-43). Additional studies explored whether the high intrinsic levels of drug resistance in the HCC lines can be even further augmented by adherence to ECM protein. Overexpression of b1 integrin and its role in the progression of HCC has been reported (Patriarca, et al., 1993, J Pathol 171:5-11). Overexpression of b1-integrin in several HCC lines (including HepG2) protected them from chemotherapeutic drug-induced apoptosis via a MAP kinase-dependent pathway (Zhang, et al., 2002, Cancer 95:896-906). Knockout of a6b1-integrin expression reversed the transformed phenotype of HepG2 cells (Carloni et al., 1998, Gastroenterology. 115:433-442). […] These properties of HCCs may contribute to the marked changes in amount and distribution of ECM components found in the stroma of HCC as compared to normal liver (Jaskiewicz, et al., 1993, Anticancer Res 13:2229-2238). Thus, the combination of increased expression of integrins in HCCs as well as abnormalities in the surrounding ECM may create an environment that both promotes tumor growth and inhibits apoptosis. Therefore, the inventors tested HepG2 and Hep3B for drug sensitivity when assayed on plates coated with BSA as a control, or on FN as described above for U937 cells.

In the next data set the test system is HepG2. Put plainly: 48 h MTT dye reduction assay. Type of data set: cell-based. As to conditions: Homo sapiens.
Source text: as §1, §2

For data set [1], the system named is U937 cells. Put plainly: DNA fragmentation in whole cells (release of 3H-labeled DNA fragments, 4 h). The data set is classed as cell-based, human. As to conditions: for IC50: Homo sapiens, U-937, 4 h. As to the method:
(§3) DNA fragmentation in whole cells or normal nuclei isolated from U937 or MCF-7 cells was assayed by release of (3H)thymidine-labeled DNA fragments as described in detail previously (Wright et al. (1994) J. Exp. Med. 180, 2113-2123). DNA fragmentation induced by rADF treatment of isolated nuclei for four h was analyzed by agarose electrophoresis as described in detail previously (Wright et al. (1994) supra). In four h assays using isolated nuclei, the buffer was supplemented with an ATP regenerating system (2 mM ATP, 10 mM phosphocreatine, and 50 μg/ml creatine kinase).

The next data set relates to HL-60 neo. The description is as above. As to conditions: Homo sapiens. The data set is classed as cell-based.
Data set [2] relates to U937 cells. Put plainly: Viability by trypan blue exclusion after 4 h treatment. The data set is classed as cell-based, human. As to conditions: for IC50: Homo sapiens, U-937, trypan blue, 4 h.
The next data set deals with HL-60 Bcl-2. Put plainly: DNA fragmentation in whole cells (release of 3H-labeled DNA fragments, 4 h). The data set is classed as cell-based. As to conditions: Homo sapiens.
The subject of another data set is MES-SA (parental). Put plainly: 48 h MTT dye reduction assay. Type of data set: cell-based. As to conditions: Homo sapiens. The text has this:
(§4) One of the most frequently reported alterations associated with multidrug resistance is increased expression of the 170 kDa membrane protein called P-glycoprotein encoded by the MDR1 gene. It functions as an energy-dependent drug efflux pump that reduces intracellular drug accumulation, thereby causing resistance to many structurally unrelated drugs (Roninson, et al., 1986, Proc Natl Acad Sci 83:4538-4542). To determine if MDR1 overexpressing cells were sensitive to rADF, the inventors tested the parental drug-sensitive uterine sarcoma, MES-SA, compared to a variant selected by culturing in doxorubicin, MES-SA/Dx5, described previously (Chen et al., 1997).

The subject of another data set is U9-TR. Put plainly: DNA fragmentation in whole cells (release of 3H-labeled DNA fragments, 4 h). As to conditions: Homo sapiens; U9-TR; 4 hr; read-out: IC50 Value (minimal concentration to cause 50% DNA fragmentation). The data set is classed as cell-based, human. As to the method: as §3
(§5) Another mechanism whereby cancer cells may resist apoptosis is through overexpression of heat shock (HS) proteins which have been found at high levels in most tumor cell biopsies (Jaattela, et al., 1999, Exp Cell Res 248:30-43). […] We have studied the mechanisms of apoptosis resistance using several variants derived from the U937 cell line. Variants generated by prolonged growth in the presence of TNF (U9-TR) or by nutritional depletion of intracellular NAD content (U9-NAD-) have been described in the literature previously (Wright, et al., 1992, Cancer Immunol Immunother 34:399-406; Wright, et al., 1996b, J. Exp. Med. 183: 463-477). Both of these variants were resistant to apoptosis induced by diverse agents, such as chemotherapeutic drugs, UV light, and TNF.

A further data set has as its system U9-NAD -. The data set is described as above. The data set is classed as cell-based. As to conditions: Homo sapiens, read-out: IC50 Value (minimal concentration to cause 50% DNA fragmentation). As to the method:
as §3, §5

A further data set relates to MES-SA/Dx5 (MDR1 high). Put plainly: cells. As to conditions: 48 h, read-out: IC50 Values.
Source text: as §4

The test system of the next data set is ICAD/DFF45. Put plainly: Western blot for ICAD cleavage in rADF-treated nuclei. The data set is classed as biochemical, human. As to conditions: U937 nuclei treated with rADF.
In another data set the test system is naked DNA. Put plainly: DNase assay on naked DNA substrate (rADF alone or extracts of rADF-treated U937 nuclei). Type of data set: biochemical, human.
In the next data set the test system is isolated MCF-7 nuclei. Put plainly: DNA fragmentation in isolated nuclei (release of 3H-labeled DNA fragments). The data set is classed as biochemical, human. As to conditions: nuclei from MCF-7 cells (no caspase 3); four h assay.
The test system of the next data set is isolated U937 nuclei. Put plainly: DNA fragmentation in isolated nuclei (release of 3H-labeled DNA fragments; agarose gel). Type of data set: biochemical, human. As to the method: as §3
ADF was purified from 2.9 mg of pig heart mitochondrial MDH obtained from Worthington Enzymes, New Jersey. Protein was fractionated by gel filtration on a Tosohaas G2000SWXL 7.8 mm×300 mm HPLC column, and each fraction tested for DNA fragmentation in isolated U937 nuclei (ADF activity) and for MDH enzyme activity. Active fractions were pooled and applied to a reverse phase C4 Brownlee 2.1 mm×220 mm column equilibrated in H2O+0.0075% trifluoroacetic acid pH 6.5, and eluted with a linear gradient to 40% acetonitrile.
In preliminary studies, the inventors observed that supernatants of normal mitochondria derived from cultured cells or freshly isolated liver cells incubated in vitro contained activity that induced internucleosomal DNA cleavage in isolated U937 nuclei. […] To ascertain that the DNA fragmenting activity of MDH was not due to a contaminating nuclease, the inventors purified the commercial enzyme to determine the source of the ADF activity.
Therefore, it is likely that ADF directly or indirectly activates endonucleases present in isolated nuclei.

Setting [3] is: Hep3B (BSA) plate coating, read-out: IC50 Values.
Setting [4] is: Hep3B (FN) plate coating, read-out: IC50 Values.
The mark [5] stands for this setting: read-out: IC50 Values ± SEM (n).
Setting [6] is: HepG2, 48 h, HepG2 (BSA) plate coating, read-out: IC50 Values.
Setting [7] is: HepG2, 48 h, HepG2 (FN) plate coating, read-out: IC50 Values.
[8] abbreviates: HepG2, 48 h, HepG2, read-out: IC50 Values ± SEM (n).

Entries after “also recorded” stand apart in the source; their conditions may differ. Read-outs that look alike come from different tables or passages of the source. Bounds are passed on as bounds.

On to `O=c1[nH]cc(F)c(=O)[nH]1` [5-FU, 5-fluorouracil], for which the IC50 was 203 µM in the data set on SK Hep-1; 490 µM in the data set on Hep3B (setting [3]); greater than 2 µM with Hep3B (setting [4]); 410 µM in the data set on Hep3B (setting [5]); 515 µM in the data set on HepG2 (setting [6]); greater than 2 µM in the data set with HepG2 (setting [7]). For the same molecule, the IC50 in the data set on HepG2 (setting [8]) turned out to be 620 µM.

For the molecule `COc1cccc2c1C(=O)c1c(O)c3c(c(O)c1C2=O)C[C@@](O)(C(=O)CO)C[C@@H]3O[C@H]1C[C@H](N)[C@H](O)[C@H](C)O1` [Dox, doxorubicin], the IC50 in the data set on SK Hep-1 is 73 µM; in the data set on Hep3B (setting [3]), 86 µM; in the data set with Hep3B (setting [4]), greater than 400 µM; in the data set on Hep3B (setting [5]), 80 µM; with HepG2 (setting [6]) it was 104 µM; in the data set with HepG2 (setting [7]), greater than 400 µM. Besides, in the data set with HepG2 (setting [8]), the IC50 was found to be 122 µM.

Turning to `COc1cc([C@@H]2c3cc4c(cc3[C@@H](O[C@@H]3O[C@@H]5CO[C@@H](C)O[C@H]5[C@H](O)[C@H]3O)[C@H]3COC(=O)[C@H]23)OCO4)cc(OC)c1O` [Etoposide, etoposide], the IC50 worked out at 12 µM in the data set on U937 cells [1] (U937, 4 hr, read-out: IC50 Value (minimal concentration to cause 50% DNA fragmentation)); 4 µM in the data set on U937 cells [1] (U937 on BSA, 4 h DNA fragmentation, read-out: IC50 Values); 15 µM in the data set with U937 cells [1] (U937 on FN, 4 h DNA fragmentation, read-out: IC50 Values); 26 µM in the data set with HL-60 neo; 510 µM with U937 cells [2] (U937 + PMA (10 nM, 3 days)); 4 µM with U937 cells [2] (U937). The IC50 is 380 µM in the data set on HL-60 Bcl-2; 58 µM in the data set on SK Hep-1; 59 µM with MES-SA (parental); greater than 500 µM with U9-TR; greater than 500 µM in the data set with U9-NAD -; 210 µM in the data set with Hep3B (setting [3]). For the same molecule, the IC50 was 840 µM in the data set on Hep3B (setting [4]); 95 µM in the data set on Hep3B (setting [5]); 35 µM in the data set on HepG2 (HepG2 (BSA) plate coating, read-out: IC50 Values); 231 µM with HepG2 (HepG2, read-out: IC50 Values ± SEM (n)); greater than 500 µM in the data set on MES-SA/Dx5 (MDR1 high). Moreover, in the data set on U937 cells [1] (cells adhering to FN vs plated on BSA), the “fold higher concentration to induce 50% DNA fragmentation” value is “about 5 fold”. Besides, the “factor of resistance of PMA-treated cells” value with U937 cells [2] (PMA-treated vs normal U937) came to 127 fold.

B1: rADF: recombinant human activator of DNA fragmentation, 9 kDa C-terminal fragment of mitochondrial MDH, SEQ ID NO:7 (protein, listed as Homo sapiens)
chain: KAKAGAGSATLSMAYAGARFVFSLVDAMNGKEGVVECSFVKSQETECTYFSTPLLLGKKGIEKNLGIGKVSSFEEKMISDAIPELKASIKKGEDFVKTLK
For B1, the ICAD/DFF45 cleavage result in the data set with ICAD/DFF45 is recorded as “not cleaved”. Further, the “DNase activity on naked DNA of extracts from treated nuclei” value in the data set with naked DNA (U937 nuclei incubated with rADF 20 h) is listed as “digested naked DNA”. The “digestion of naked DNA by rADF itself” value with naked DNA (rADF without nuclei) was “did not digest naked DNA; also recorded: little or no activity”. The “DNA fragmentation activity at the same concentrations” value in the data set with U937 cells [1] (2.25-9 nM, 4 h assay) is “little activity”. The “activation of nuclear DNA fragmentation” value is listed as “dose-dependent activation” in the data set on isolated MCF-7 nuclei and “dose-dependent activation” in the data set with isolated U937 nuclei (nuclei from U937 cells, four h assay). Besides, the “internucleosomal DNA fragmentation” value in the data set on isolated U937 nuclei (agarose gel, 4 h) was “induced internucleosomal DNA fragmentation”.

B2: MDH derived from porcine heart mitochondria: commercial preparation of mitochondrial malate dehydrogenase (Worthington Enzymes) (protein, UniProt P00346 25-338, looked up)
Malate dehydrogenase, …: AKVAVLGASGGIGQPLSLLLKNSPLVSRLTLYDIAHTPGVAADLSHIETRATVKGYLGPEQLPDCLKGCDVVVIPAGVPRKPGMTRDDLFNTNATIVATLTAACAQHCPDAMICIISNPVNSTIPITAEVFKKHGVYNPNKIFGVTTLDIVRANAFVAELKGLDPARVSVPVIGGHAGKTIIPLISQCTPKVDFPQDQLSTLTGRIQEAGTEVVKAKAGAGSATLSMAYAGARFVFSLVDAMNGKEGVVECSFVKSQETDCPYFSTPLLLGKKGIEKNLGIGKISPFEEKMIAEAIPELKASIKKGEEFVKNMK
B2: in the data set with isolated U937 nuclei (isolated nuclei), the “concentrations dose-dependently inducing nuclear DNA fragmentation” value fell in the range of 2 to 10 µg/mL.

For the origin of these results see US20040191843A1, “Cell-killing molecules and methods of use thereof” (Palo Alto Institute of Molecular Medicine, priority 2003, published 2004).
